Source: patent US20030186946A1, “Suppression of cytotoxic protein conformers” (priority 2002, published 2003)
Read-outs that look alike come from different tables or passages of the source.

Key:
human amylin [1] = target: T1, human amylin (Homo sapiens, UniProt P10997); assay: Radiolabelled precipitation assay of amylin fibril formation; assay type: biochemical; set-up: Amylin is a 37-residue; C-terminally amidated peptide having a disulfide bridge between the cysteines at residues 2 and 7; purchased Bachem Calif; (Torrance, Calif.); host or cells: chemical synthesis; details: 200 μM Congo red, 10 μM human amylin, after 5 h
T1 sequence (P10997 34-70 limits assumed): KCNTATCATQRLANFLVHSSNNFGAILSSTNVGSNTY
Description: Radiolabelled Precipitation Assays. The precipitation of radiolabelled human and rat amylin fibrils was used as an independent method to monitor assembly of amylin fibrils in the presence or absence of potential inhibitors of amylin fibril formation. […] Incubation mixtures were then centrifuged at either 16,000×g or 100,000×g, for 20 min, and the amount of [^3H]-human amylin remaining in the supernatant after centrifugation was determined (Beckman LSW 3801 β-counter, USA). Results were expressed as percentages of precipitable counts per minute, relative to total radioactivity in the supernatant.
Incorporation of [^3H]-amylin into amylin fibrils was followed for 24 hours. Human amylin fibrils were precipitated by centrifugation at either 16,000×g (FIG. 7A) or at 100,000×g (FIG. 7B). Rat amylin (10 μM) in the presence of [^3H]-rat amylin was used as a non-fibril forming control (♦) (FIG. 7A). The results are shown as the percentage of precipitable radioactive amylin, relative to total radioactivity in the supernatant at each time point. Each data point represents the mean±s.e.m of three separate reactions.
The incorporation of radioactive monomeric amylin into the human amylin fibrils as they form, can be used to measure the rate at which amylin fibrils form in the presence or absence of a potential inhibitory drug. Amylin fibrils can be separated from solution by centrifugation and the amount of radioactive amylin precipitated in the amylin fibril pellet is then used as a measure of the amount of amylin fibrils present at that time.
Thioflavin-T, although not polycyclic, is widely used in fluorescent assays to measure amylin fibril formation. Incorporation of radioactivity into the pellet of an aliquot of the reaction mixture centrifuged at 16,000×g, for 20 minutes was monitored over the time periods indicated. Rat amylin (10 μM) with [^3H]-rat amylin added was used as a non fibril forming control (∘) in each experiment. The results are shown as the percentage of precipitable radioactive amyloid, relative to total radioactivity in the supernatant at each time point. Each data point represents the mean±s.e.m of three separate experiments.

human amylin [2] = target: T1, human amylin; assay: Electron microscopy of human amylin fibrils; assay type: biochemical; set-up: Amylin is a 37-residue; C-terminally amidated peptide having a disulfide bridge between the cysteines at residues 2 and 7; purchased Bachem Calif; (Torrance, Calif.); host or cells: chemical synthesis; details: 1200 μM compound, 60 μM human amylin, 10 mM tris pH 7.4, 24 h (FIG. 6)
Description: Electron Microscopy. […] Samples were removed at various time points and prepared for electron microscopy. Aliquots (8 μl) of the amylin fibril preparations were absorbed to glow-discharged carbon-coated collodion film on 200-mesh copper grids for 1 min. Grids were blotted, washed twice in droplets of deionised water and stained with 2% (w/v) uranyl acetate. Grids were examined in a Phillips Technai transmission electron microscope operated at 120 kV.
Samples were removed at various time points and prepared for electron microscopy according to the procedure described in the methods.
Electron Microscopy of human amylin fibrils in the presence and absence of quinacrine (FIG. 5). A 100 fold molar excess of quinacrine was incubated with human amylin. Samples were removed at various time points and prepared for electron microscopy according to the procedure described in the methods.
Electron Microscopy of human amylin fibrils in the presence and absence of selected polycyclic compounds (FIG. 6). […] Samples were removed and prepared for electron microscopy as described in the Methods. All experiments were performed in triplicate and the pictures above are representative of at least 6 photographs taken at each magnification.

human amylin [3] = target: T1, human amylin; details: 10 μM thioflavin-T
Description: Thioflavin-T binding fluorescent assays. The effects of various polycyclic compounds on islet amyloid formation were measured by fluorescence spectroscopy, using a SpectraMAX Gemini XS Fluorescence Spectrophotometer (Molecular Devices Corporation, Sunnyvale, Calif.). Excitation and emission maxima were set to 450 nm and 510 nm respectively using a cutoff filter at 495 nm. Thioflavin-T binds to amylin fibrils, but not to monomeric amylin (Goldsbury et al., (1999), J. Mol. Biol., 285:33-39). […] The rate of amylin fibril formation was determined by following thioflavin-T fluorescence in the presence or absence of the potential inhibitory drug. […] Background fluorescence by acridine and acridine orange in the absence of amylin was subtracted from the experimental results. The control preparation contained human amylin and thioflavin-T in the absence of drug. The rate of fluorescence enhancement under these conditions was used to compare amylin fibril formation in the absence and presence of the drug. All other experimental conditions were identical.
Tri-prolyl amylin and rat amylin with thioflavin-T were also used as additional controls.
Each data point represents the mean±s.e.m of three separate reactions.
Effect of chlorpromazine on enhancement of thioflavin-Tfluorescence by human amylin (FIG. 2). Chlorpromazine (700 μM) (π) was incubated in 10 mM tris p H 7.4, with monomeric human amylin (70 μM) in the presence of thioflavin-T (10 μM). The fluorescence of the reaction was monitored over 24 hours as described in the methods. […] Each data point represents the mean±s.e.m of three separate reactions.
Effect of selected polycylic compounds on enhancement of thioflavin-Tfluorescence by human amylin (FIG. 3). Acridine, acridine orange, neutral red and methylene blue are selected examples of fused tricyclic ring compounds. […] Compound structures are shown adjacent to the appropriate graph. […] Fluorescence was monitored over 24 h as described in the Methods. A preparation containing human amylin and thioflavin-T only (▪), was included as a comparison in the absence of drug. […] Each data point represents the mean±s.e.m of three independent experiments.

RINm5F cells = assay: Cytotoxicity assay in RINm5F cells (calcein-AM / ethidium homodimer-1 staining)
Description: Cell Culture and Cytotoxicity Assays. RINm5F cells were cultured in RPMI 1640 medium containing 10% fetal bovine serum, 290 μg/mL L-glutamine, 100 IU/mL penicillin and 100 μg/mL streptomycin. Cells were plated at a density of 15×1 cells per well, incubated for 48 h, rinsed with PBS and placed in fresh medium containing Congo red. Freshly prepared human amylin in Milli-Q water, was preincubated with Congo red for 30 min, then added to the cell culture medium to give a final concentration of 30 μM. Cells were treated for 22 h with human amylin in the presence or absence of 100 μM Congo red. Cell viability was determined by double-staining with calcein-AM and ethidium homodimer-1. Green fluorescence of live cells and red fluorescence marking nuclei of dead cells were simultaneously visualized using a Zeiss Axiovert S100 microscope equipped with a Zeiss filter set # 09. Photographs were taken at 400× magnification using a Zeiss AxioCam digital camera.
A. Representative fluorescence micrograph of RINm5F cells treated with 30 μM human amylin for 22 h and stained with calcein-AM and ethidium homodimer-1 to show live cells (green) and dead cells (red). […] B. A representative micrograph of RINm5F cells treated with 30 μM human amylin and 100 μM Congo red stained as above. […] The percentage of live cells was determined for cells treated for 22 h with vehicle; 30 μM human amylin; 30 μM human amylin in the presence of 100 μM Congo red; or 30 μM rat amylin. Experiments were repeated independently 10 times except for human amylin plus Congo red (A+CR) which was repeated five times. Error bars represent the s.e.m of live and dead cell counts over 6-12 fields per condition.

Substance: Congo red
- reduction in amyloid content (human amylin [1]): approximately 3 fold
- morphology of human amylin fibrils (electron microscopy) (human amylin [2]): still formed characteristic amylin fibrils
- enhancement of thioflavin-T fluorescence by human amylin (human amylin [3]; 700 μM compound, 70 μM human amylin, 10 mM tris pH 7.4, over 72 hours (FIG. 1)): no increase in fluorescence beyond that of the rat control preparation
- enhancement of thioflavin-T fluorescence by human amylin (human amylin [3]; 1200 μM compound (20-fold molar excess), 60 μM human amylin, over 24 h (FIG. 3)): no increase in thioflavin-T enhanced fluorescence
- protection against cytotoxic effects of human amylin (RINm5F cells; 30 μM human amylin, 100 μM Congo red (3-fold molar excess), 22 h): inhibited the cytotoxic effects of amylin
- intrinsic cytotoxicity of compound to RINm5F β cells (RINm5F cells; relative molar ratios which produced suppression of amyloid aggregation (low μM)): nointrinsic cytotoxic effects
